Measurements published in PubChem BioAssay (NCI).
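Abbreviation: GI50, concentration required for 50% inhibition of growth. TGI is the concentration that stops growth completely.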

Key:
Test in all cases: NCI anticancer screen, dose series, 384-well format
[1] = system: HOP-92 NSCLC
[2] = system: RXF 393 renal
[3] = system: HT29 colon
[4] = system: HCT-116 colon
[5] = system: UO-31 renal
[6] = system: MCF7 breast
[7] = system: NCI-H23 lung
[8] = system: NCI-H522 lung
[9] = system: K-562 leukemia
[10] = system: T-47D breast
[11] = system: MDA-MB-231 breast
[12] = system: MOLT-4 leukemia
[13] = system: A549 NSCLC
[14] = system: CAKI-1 renal
[15] = system: U251 glioblastoma
[16] = system: OVCAR-8 ovarian
[17] = system: HCC-2998 colon
[18] = system: KM12 colon
[19] = system: LOX IMVI melanoma
[20] = system: 786-0 renal
[21] = system: MDA-MB-468 breast
[22] = system: SK-OV-3 ovarian
[23] = system: SW-620 colon
[24] = system: BT-549 breast
[25] = system: COLO 205 colon
[26] = system: NCI/ADR-RES ovarian
[27] = system: SNB-75 CNS
[28] = system: UACC-257 melanoma
[29] = system: NCI-H460 NSCLC
[30] = system: OVCAR-5 ovarian
[31] = system: TK-10 renal
[32] = system: SF-268 CNS
[33] = system: SK-MEL-5 melanoma
[34] = system: NCI-H226 lung
[35] = system: OVCAR-4 ovarian
[36] = system: M14 melanoma
[37] = system: RPMI-8226 leukemia
[38] = system: A498 renal
[39] = system: DU-145 prostate
[40] = system: PC-3 prostate
[41] = system: OVCAR-3 ovarian
[42] = system: IGROV1 ovarian
[43] = system: MDA-MB-435 melanoma
[44] = system: EKVX NSCLC
[45] = system: NCI-H322M lung
[46] = system: HS 578T breast
[47] = system: SK-MEL-28 melanoma
[48] = system: UACC-62 melanoma
[49] = system: SNB-19 CNS
[50] = system: HOP-62 NSCLC
[51] = system: SF-539 CNS
[52] = system: HL-60(TB) leukemia
[53] = system: MALME-3M melanoma
[54] = system: HCT-15 colon
[55] = system: CCRF-CEM leukemia
[56] = system: SF-295 CNS
[57] = system: ACHN renal
[58] = system: SN12C renal

Cc1csc(-c2nnc(Nc3ccc(Oc4ncccc4-c4ccnc(N)n4)cc3)c3ccccc23)c1
GI50 [1]: 1.96 µM
TGI [1]: 43.3 µM
GI50 [2]: < 0.01 µM
TGI [2]: 5.03 µM
GI50 [3]: 0.271 µM
TGI [3]: 2.95 µM
GI50 [4]: 0.0331 µM
TGI [4]: > 100 µM
GI50 [5]: 2.42 µM
TGI [5]: > 100 µM
GI50 [6]: 0.547 µM
TGI [6]: 13.1 µM
GI50 [7]: 1.2 µM
TGI [7]: 16.3 µM
GI50 [8]: 0.0121 µM
TGI [8]: 4.59 µM
GI50 [9]: 0.552 µM
TGI [9]: > 100 µM
GI50 [10]: 1.44 µM
TGI [10]: 4.88 µM
GI50 [11]: 2.34 µM
TGI [11]: > 100 µM
GI50 [12]: < 0.01 µM
TGI [12]: < 0.01 µM
GI50 [13]: < 0.01 µM
TGI [13]: > 100 µM
GI50 [14]: 0.682 µM
TGI [14]: > 100 µM
GI50 [15]: 2.91 µM
TGI [15]: > 100 µM
GI50 [16]: 1.34 µM
TGI [16]: > 100 µM
GI50 [17]: 1.44 µM
TGI [17]: 3.53 µM
GI50 [18]: 1.69 µM
TGI [18]: > 100 µM
GI50 [19]: 0.187 µM
TGI [19]: > 100 µM
GI50 [20]: 2.71 µM
TGI [20]: > 100 µM
GI50 [21]: < 0.01 µM
TGI [21]: < 0.01 µM
GI50 [22]: 3.82 µM
TGI [22]: > 100 µM
GI50 [23]: 0.181 µM
TGI [23]: 3.13 µM
GI50 [24]: 0.191 µM
TGI [24]: > 100 µM
GI50 [25]: < 0.01 µM
TGI [25]: < 0.01 µM
GI50 [26]: 0.166 µM
TGI [26]: > 100 µM
GI50 [27]: 5.92 µM
TGI [27]: > 100 µM
GI50 [28]: 1.48 µM
TGI [28]: 43.2 µM
GI50 [29]: < 0.01 µM
TGI [29]: 1.29 µM
GI50 [30]: 7.21 µM
TGI [30]: > 100 µM
GI50 [31]: 1.89 µM
TGI [31]: > 100 µM
GI50 [32]: < 0.01 µM
TGI [32]: 0.0564 µM
GI50 [33]: 0.976 µM
TGI [33]: > 100 µM
GI50 [34]: 3.25 µM
TGI [34]: > 100 µM
GI50 [35]: 5.32 µM
TGI [35]: > 100 µM
GI50 [36]: 0.0995 µM
TGI [36]: 3.08 µM
GI50 [37]: 0.0101 µM
TGI [37]: 2.47 µM
GI50 [38]: 0.253 µM
TGI [38]: > 100 µM
GI50 [39]: 2.1 µM
TGI [39]: > 100 µM
GI50 [40]: 4.05 µM
TGI [40]: > 100 µM
GI50 [41]: 0.0536 µM
TGI [41]: > 100 µM
GI50 [42]: 1.54 µM
TGI [42]: > 100 µM
GI50 [43]: 1.81 µM
TGI [43]: > 100 µM
GI50 [44]: 0.918 µM
TGI [44]: > 100 µM
GI50 [45]: 4.92 µM
TGI [45]: > 100 µM
GI50 [46]: < 0.01 µM
TGI [46]: 17.6 µM
GI50 [47]: 1.51 µM
TGI [47]: 9.78 µM
GI50 [48]: 0.202 µM
TGI [48]: 5.22 µM
GI50 [49]: 19.6 µM
TGI [49]: > 100 µM
GI50 [50]: 0.0894 µM
TGI [50]: > 100 µM
GI50 [51]: 0.141 µM
TGI [51]: > 100 µM
GI50 [52]: < 0.01 µM
TGI [52]: 1.11 µM
GI50 [53]: 1.51 µM
TGI [53]: 6.12 µM
GI50 [54]: 0.586 µM
TGI [54]: > 100 µM
GI50 [55]: < 0.01 µM
TGI [55]: < 0.01 µM
GI50 [56]: 0.0517 µM
TGI [56]: > 100 µM
GI50 [57]: 0.878 µM
TGI [57]: > 100 µM
GI50 [58]: 1.13 µM
TGI [58]: > 100 µM
